From patent US10711004B2 (Genentech, Inc., priority 2018, dated 2020)
Where two headings read alike, the source gives them in different places. Values belong to the molecule of their own block, whether it stands above or below them.

Biological target: human TRPA1 channel (Homo sapiens (Human), UniProt O75762)
Test: hTRPA1 CHO Ca2+ FLIPR Tetra assay, block of cinnamaldehyde induced calcium influx
Format: cell-based
Conditions: CHO cells expressing TRPA1, Hill coefficient fixed to 1.5
Method in brief: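 IC50 values come from fixed-Hill fits of inhibition of cinnamaldehyde-induced (about EC50 level) calcium influx measured by FLIPR Tetra. Before agonist, TRPA1-expressing CHO cells loaded with calcium indicator were exposed to compound for 10 or 90 min at room temperature in HEPES-buffered HBSS, pH 7.4, with 0.02% BSA.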

[1] = read-out: hTRPA1 IC50 (10 min), compounds incubated 10 minutes at room temperature before cinnamaldehyde agonist
[2] = read-out: hTRPA1 IC50 (90 min), compounds incubated 90 minutes at room temperature before cinnamaldehyde agonist

Sequence of human TRPA1 channel (O75762 whole entry): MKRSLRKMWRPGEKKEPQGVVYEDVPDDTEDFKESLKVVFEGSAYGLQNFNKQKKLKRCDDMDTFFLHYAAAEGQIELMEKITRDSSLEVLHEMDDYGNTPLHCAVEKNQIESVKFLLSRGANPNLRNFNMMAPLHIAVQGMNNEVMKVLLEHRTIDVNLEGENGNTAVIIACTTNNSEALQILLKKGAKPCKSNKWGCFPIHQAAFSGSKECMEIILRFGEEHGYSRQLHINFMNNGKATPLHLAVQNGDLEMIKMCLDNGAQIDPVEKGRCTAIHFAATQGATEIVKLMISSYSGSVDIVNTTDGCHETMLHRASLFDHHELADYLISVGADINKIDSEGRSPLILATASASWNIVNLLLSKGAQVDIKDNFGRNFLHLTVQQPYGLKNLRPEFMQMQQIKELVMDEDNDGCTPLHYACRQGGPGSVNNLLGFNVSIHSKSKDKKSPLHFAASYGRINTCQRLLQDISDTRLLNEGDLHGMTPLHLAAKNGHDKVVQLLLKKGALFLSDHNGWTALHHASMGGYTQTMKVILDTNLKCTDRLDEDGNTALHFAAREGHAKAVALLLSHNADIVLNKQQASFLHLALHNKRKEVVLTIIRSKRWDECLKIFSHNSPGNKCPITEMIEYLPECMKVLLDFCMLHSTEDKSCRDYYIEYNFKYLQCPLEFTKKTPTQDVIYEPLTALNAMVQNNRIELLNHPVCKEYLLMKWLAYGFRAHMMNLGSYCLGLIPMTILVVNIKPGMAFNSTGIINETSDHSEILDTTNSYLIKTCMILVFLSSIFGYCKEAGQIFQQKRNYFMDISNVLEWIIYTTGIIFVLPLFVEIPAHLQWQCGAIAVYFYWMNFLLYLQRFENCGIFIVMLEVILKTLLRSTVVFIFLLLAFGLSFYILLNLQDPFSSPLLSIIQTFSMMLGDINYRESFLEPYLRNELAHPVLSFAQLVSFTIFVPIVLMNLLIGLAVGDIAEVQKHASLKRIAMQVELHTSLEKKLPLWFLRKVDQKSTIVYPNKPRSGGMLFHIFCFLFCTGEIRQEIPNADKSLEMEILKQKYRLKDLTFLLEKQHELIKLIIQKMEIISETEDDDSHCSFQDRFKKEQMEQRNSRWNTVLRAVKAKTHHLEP

SMILES: Cn1cnc2ncn(Cc3nc([C@@H]4[C@H]5C=C(c6ccc7c(cnn7C)c6)C[C@H]54)no3)c(=O)c21 [Example Compound 264, 7-methyl-1-[[3-[(1R,5R,6S)-3-(1-methylindazol-5-yl)-6-bicyclo[3.1.0]hex-2-enyl]-1,2,4-oxadiazol-5-yl]methyl]purin-6-one]
IC50 [1]: 29 nM | IC50 [2]: 14 nM

SMILES: Cn1c(=O)ccc2ncn(Cc3nc([C@@H]4[C@H]5C=C(c6ccccc6)C[C@H]54)no3)c(=O)c21 [Example Compound 265, 5-methyl-3-[[3-[(1R,5R,6S)-3-phenyl-6-bicyclo[3.1.0]hex-2-enyl]-1,2,4-oxadiazol-5-yl]methyl]pyrido[3,2-d]pyrimidine-3,6-dione]
IC50 [1]: 16.1 nM | IC50 [2]: 12 nM

SMILES: N#Cc1ccc2c(=O)n(Cc3nc([C@@H]4[C@H]5C=C(c6ccccc6)C[C@H]54)no3)cnc2n1 [Example Compound 266, 4-oxo-3-[[3-[(1R,5R,6S)-3-phenyl-6-bicyclo[3.1.0]hex-2-enyl]-1,2,4-oxadiazol-5-yl]methyl]pyrido[2,3-d]pyrimidine-7-carbonitrile]
IC50 [1]: 54.6 nM | IC50 [2]: 39 nM

SMILES: Cn1cnc2ncn(Cc3nc([C@H]4[C@@H]5C=C(c6ccc7[nH]ncc7c6)C[C@@H]54)no3)c(=O)c21 [Example Compound 268, 7-methyl-1-[[3-[(1S,5S,6R)-3-(1H-indazol-5-yl)-6-bicyclo[3.1.0]hex-2-enyl]-1,2,4-oxadiazol-5-yl]methyl]purin-6-one]
IC50 [1]: 20 nM | IC50 [2]: 12 nM

SMILES: Cn1cnc2ncn(Cc3nc([C@H]4[C@@H]5CN(c6cc(F)c(Cl)c(F)c6)C[C@@H]54)no3)c(=O)c21 [Example Compound 271, 7-methyl-1-[[3-[(1S,5R)-3-(4-chloro-3,5-difluoro-phenyl)-3-azabicyclo[3.1.0]hexan-6-yl]-1,2,4-oxadiazol-5-yl]methyl]purin-6-one]
IC50 [1]: 34.7 nM | IC50 [2]: 11 nM

SMILES: O=c1c2cccc(=O)n2ccn1Cc1nc([C@@H]2[C@H]3C=C(c4ccccc4)C[C@H]32)no1 [Example Compound 275, 2-[[3-[(1R,5R,6S)-3-phenyl-6-bicyclo[3.1.0]hex-2-enyl]-1,2,4-oxadiazol-5-yl]methyl]pyrido[1,2-a]pyrazine-1,6-dione]
IC50 [1]: 11.9 nM | IC50 [2]: 6.5 nM

SMILES: Cn1cnc2ncn(Cc3nc([C@H]4[C@@H]5CN(c6ccc(Cl)cc6F)C[C@@H]54)no3)c(=O)c21 [Example Compound 276, 7-methyl-1-[[3-[(1S,5R)-3-(4-chloro-2-fluorophenyl)-3-azabicyclo[3.1.0]hexan-6-yl]-1,2,4-oxadiazol-5-yl]methyl]purin-6-one]
IC50 [1]: 15 nM | IC50 [2]: 7.4 nM

SMILES: Cn1cnc2ncn(Cc3nc([C@@H]4[C@H]5C=C(c6ccc(-c7cnco7)cc6)C[C@H]54)no3)c(=O)c21 [Example Compound 277, 7-methyl-1-[[3-[(1R,5R,6S)-3-(4-oxazol-5-ylphenyl)-6-bicyclo[3.1.0]hex-2-enyl]-1,2,4-oxadiazol-5-yl]methyl]purin-6-one]
IC50 (compounds incubated 10 minutes at room temperature before cinnamaldehyde agonist): 16.8 nM | IC50 (compounds incubated 90 minutes at room temperature before cinnamaldehyde agonist): 11 nM

SMILES: O=c1c2cccnc2cnn1Cc1nc([C@H]2[C@@H]3CN(c4ccc5ncsc5c4)C[C@@H]32)no1 [Example Compound 279, 6-[[3-[(1R,5S)-3-(1,3-benzothiazol-6-yl)-3-azabicyclo[3.1.0]hexan-6-yl]-1,2,4-oxadiazol-5-yl]methyl]pyrido[2,3-d]pyridazin-5-one]
IC50 [1]: 11.2 nM | IC50 [2]: 5.6 nM

SMILES: Cn1cnc2ncn(Cc3nc([C@@H]4[C@H]5C=C(c6cccc(-c7cnco7)c6)C[C@H]54)no3)c(=O)c21 [Example Compound 280, 7-methyl-1-[[3-[(1R,5R,6S)-3-(3-oxazol-5-ylphenyl)-6-bicyclo[3.1.0]hex-2-enyl]-1,2,4-oxadiazol-5-yl]methyl]purin-6-one]
IC50 [1]: 46.1 nM | IC50 [2]: 40 nM

SMILES: Cn1cnc2ncn(Cc3nc([C@@H]4[C@H]5C=C(c6ccc(C(F)F)cc6)C[C@H]54)no3)c(=O)c21 [Example Compound 281, 7-methyl-1-[[3-[(1R,5R,6S)-3-[4-(difluoromethyl)phenyl]-6-bicyclo[3.1.0]hex-2-enyl]-1,2,4-oxadiazol-5-yl]methyl]purin-6-one]
IC50 [1]: 67.9 nM | IC50 [2]: 35 nM

SMILES: Cn1cnc2ncn(Cc3nc([C@@H]4[C@H]5C=C(c6ccc(C#N)c(F)c6)C[C@H]54)no3)c(=O)c21 [Example Compound 283, 2-fluoro-4-[(1R,5R,6S)-6-[5-[(7-methyl-6-oxo-purin-1-yl)methyl]-1,2,4-oxadiazol-3-yl]-3-bicyclo[3.1.0]hex-2-enyl]benzonitrile]
IC50 [1]: 19.6 nM | IC50 [2]: 5.3 nM

Other lines, results leading:

IC50 [1]: 15.8 nM | IC50 [2]: 6.5 nM
SMILES: Cn1c(Cl)nc2ncn(Cc3nc([C@@H]4[C@H]5C=C(c6ccccc6)C[C@H]54)no3)c(=O)c21 [Example Compound 263, 8-chloro-7-methyl-1-[[3-[(1R,5R,6S)-3-phenyl-6-bicyclo[3.1.0]hex-2-enyl]-1,2,4-oxadiazol-5-yl]methyl]purin-6-one]

IC50 [1]: 6.96 nM | IC50 [2]: 4.6 nM
SMILES: Cn1cnc2ncn(Cc3nc([C@H]4[C@@H]5C=C(c6ccc(F)cc6F)C[C@@H]54)no3)c(=O)c21 [Example Compound 269, 7-methyl-1-[[3-[(1S,5S,6R)-3-(2,4-difluorophenyl)-6-bicyclo[3.1.0]hex-2-enyl]-1,2,4-oxadiazol-5-yl]methyl]purin-6-one]

IC50 [1]: 13 nM | IC50 [2]: 2.4 nM
SMILES: Cn1cnc2ncn(Cc3nc([C@H]4[C@@H]5C=C(c6cc(F)cc(F)c6)C[C@@H]54)no3)c(=O)c21 [Example Compound 270, 7-methyl-1-[[3-[(1S,5S,6R)-3-(3,5-difluorophenyl)-6-bicyclo[3.1.0]hex-2-enyl]-1,2,4-oxadiazol-5-yl]methyl]purin-6-one]

IC50 [1]: 58.3 nM | IC50 [2]: 35 nM
SMILES: O=c1c2ccc(Cl)nc2ncn1Cc1nc([C@H]2[C@@H]3CN(c4cccc(F)c4)C[C@@H]32)no1 [Example Compound 272, 7-chloro-3-[[3-[(1R,5S)-3-(3-fluorophenyl)-3-azabicyclo[3.1.0]hexan-6-yl]-1,2,4-oxadiazol-5-yl]methyl]pyrido[2,3-d]pyrimidin-4-one]

IC50 [1]: 15.8 nM | IC50 [2]: 3.1 nM
SMILES: Cn1cnc2ncn(Cc3nc([C@H]4[C@@H]5C=C(c6ccc7ncsc7c6)C[C@@H]54)no3)c(=O)c21 [Example Compound 278, 7-methyl-1-[[3-[(1S,5S,6R)-3-(1,3-benzothiazol-6-yl)-6-bicyclo[3.1.0]hex-2-enyl]-1,2,4-oxadiazol-5-yl]methyl]purin-6-one]

IC50 (read-out: hTRPA1 IC50 (10 min), compounds incubated 10 minutes at room temperature before cinnamaldehyde agonist, listed as 282): 16.9 nM | IC50 (read-out: hTRPA1 IC50 (90 min), compounds incubated 90 minutes at room temperature before cinnamaldehyde agonist, listed as 282): 3.1 nM
SMILES: Cn1cnc2ncn(Cc3nc([C@@H]4[C@H]5C=C(c6cccc(F)c6F)C[C@H]54)no3)c(=O)c21 [Example Compound 282, 7-methyl-1-[[3-[(1R,5R,6S)-3-(2,3-difluorophenyl)-6-bicyclo[3.1.0]hex-2-enyl]-1,2,4-oxadiazol-5-yl]methyl]purin-6-one]
